# Legend:
# Format in all cases: physicochemical
# [1] = Physical stability on capped storage at room temperature (PXRD reanalysis)
# Description: A theoretical hemi-hydrate for a mono-edisylate salt of linsitinib would contain 1.4% water. Additional endotherms are observed at 252 and 278° C. that are likely due to melt/decomposition based on the corresponding weight loss in the TGA beginning around 244° C.
# HCl 1 was generated via evaporation of a solution containing 1:1 linsitinib:acid in tetrahydrofuran (THF)/water at 70° C. […] The weight loss is likely due to water and potentially evolution of hydrochloric acid.
# The sample was initially analyzed by PXRD and stored at ambient temperature in a capped vial. (FIG. 85).
# [2] = pH-solubility of linsitinib free base and selected salts (pH 1.5 to 6.5, overnight equilibration, HPLC); settings: for solubility: aqueous solution, thermodynamic from solid, overnight equilibration, read-out: Solubility; for Final pH: after overnight equilibration
# Description: The pH-solubility of selected salts (Phosphate 1, L-Malate 1, Esylate 1, and Esylate 2) was evaluated and compared with linsitinib free base. The solubility analysis was conducted in a manner consistent with a previous study that was performed with linsitinib free base. Aqueous solutions were prepared between pH 1.5 and pH 6.5 in 0.5 pH unit increments via titration of the solution using NaOH and HCl. For each salt or the free base, an attempt was made to reach saturation in each of the solutions by adding sufficient material to the solution such that excess solids remained. If saturation was achieved, the pH of the solution was measured and adjusted to the target pH and additional material was added if needed. The samples were then equilibrated overnight. The final pH of the solution was measured, the solids were filtered and selected samples were analyzed by PXRD. The concentration of linsitinib in the filtrate was quantitated by HPLC (diluted as needed). In some cases, significant drift (+1 pH unit or more) of the final pH from the target pH was observed after the overnight equilibration.
# The pH-solubility data is shown graphically in FIG. 89. […] Indeed, it should be noted that in the majority of the low pH systems, higher initial dissolution/solubility was observed followed by precipitation of the material from solution upon longer equilibration.
# [3] = Equilibrium solubility in bio-relevant media (FaSSGF pH 1.6, FaSSIF pH 6.5); settings: for solubility: thermodynamic from solid, read-out: Solubility
# Text: In addition to the pH-solubility data, a comparison of the equilibrium solubility of linsitinib free base and salts in two bio-relevant media (Table 28), fasted state simulated gastric fluid (FaSSGF pH 1.6) and intestinal fluid (FaSSIF pH 6.5) was completed. […] A saturated solution of Esylate 1 was not achieved during this study and therefore the equilibrium solubility could be higher than determined. It should be noted that variability of almost a full pH unit was noted among the samples making a direct comparison more challenging.
smiles,measurement,setting,value
C[C@]1(O)C[C@@H](c2nc(-c3ccc4ccc(-c5ccccc5)nc4c3)c3c(N)nccn32)C1 [Edisylate 1],PXRD result after storage at RT,"[1]; 20 days, capped",no significant changes
same,PXRD result after storage at RT,"[1]; 20 days, capped, listed as 2-4",Edisylate 1
"C[C@]1(O)C[C@@H](c2nc(-c3ccc4ccc(-c5ccccc5)nc4c3)c3c(N)nccn32)C1 [Form B, reference compound]",PXRD result after storage at RT,[1]; 23 days,Form B (LC)
C[C@]1(O)C[C@@H](c2nc(-c3ccc4ccc(-c5ccccc5)nc4c3)c3c(N)nccn32)C1 [Form I],PXRD result after storage at RT,"[1]; 20 days, capped, listed as 2-13",Form I
C[C@]1(O)C[C@@H](c2nc(-c3ccc4ccc(-c5ccccc5)nc4c3)c3c(N)nccn32)C1 [Form J],PXRD result after storage at RT,"[1]; 17 days, capped",Form I
same,PXRD result after storage at RT,"[1]; 20 days, capped",converted to Form I
C[C@]1(O)C[C@@H](c2nc(-c3ccc4ccc(-c5ccccc5)nc4c3)c3c(N)nccn32)C1.Cl [HCl 1],PXRD result after storage at RT,"[1]; 17 days, capped",no significant changes
same,PXRD result after storage at RT,"[1]; 17 days, capped, listed as 2-11",HCl 1
C[C@]1(O)C[C@@H](c2nc(-c3ccc4ccc(-c5ccccc5)nc4c3)c3c(N)nccn32)C1.O=P(O)(O)O [Phosphate 1],solubility,"[2]; pH 4, aqueous buffer, target pH 4.0, * = clear solution, not equilibrium value",5870 µg/mL
same,solubility,"[2]; pH 4.5, aqueous buffer, target pH 4.5, * = clear solution, not equilibrium value",3040 µg/mL
same,solubility,"[2]; pH 5, aqueous buffer, target pH 5.0",45.8 µg/mL
same,solubility,"[2]; pH 5.5, aqueous buffer, target pH 5.5",35 µg/mL
same,solubility,"[2]; pH 6, aqueous buffer, target pH 6.0",4.6 µg/mL
same,solubility,"[2]; pH 6.5, aqueous buffer, target pH 6.5",1 µg/mL
same,solubility,"[2]; pH adjusted with NaOH and HCl, pH 1.5, aqueous buffer, target pH 1.5, * = clear solution, not equilibrium value",38600 µg/mL
same,solubility,"[2]; pH adjusted with NaOH and HCl, pH 2, aqueous buffer, target pH 2.0, * = clear solution, not equilibrium value",25900 µg/mL
same,solubility,"[2]; pH adjusted with NaOH and HCl, pH 2.5, aqueous buffer, target pH 2.5, * = clear solution, not equilibrium value",18400 µg/mL
same,solubility,"[2]; pH adjusted with NaOH and HCl, pH 3, aqueous buffer, target pH 3.0, * = clear solution, not equilibrium value",14900 µg/mL
same,solubility,"[2]; pH adjusted with NaOH and HCl, pH 3.5, aqueous buffer, target pH 3.5, * = clear solution, not equilibrium value",7500 µg/mL
same,Final pH,[2]; target pH 1.5,1.39
same,Final pH,[2]; target pH 2.0,1.72
same,Final pH,[2]; target pH 2.5,2.46
same,Final pH,[2]; target pH 3.0,2.58
same,Final pH,[2]; target pH 3.5,2.89
same,Final pH,[2]; target pH 4.0,3.69
same,Final pH,[2]; target pH 4.5,4.01
same,Final pH,[2]; target pH 5.0,5.49
same,Final pH,[2]; target pH 5.5,5.73
same,Final pH,[2]; target pH 6.0,5.65
same,Final pH,[2]; target pH 6.5,6.21
same,Final pH,[3]; FaSSGF (pH 1.6),2.74
same,Solubility compared with the free base,"[3]; FaSSGF (pH 1.6), in words",largely comparable
same,Final pH,[3]; FaSSIF (pH 6.5),5.63
same,solubility,"[3]; fasted state simulated gastric fluid (FaSSGF), pH 1.6, fassgf or other biorelevant, FaSSGF (pH 1.6)",9510 µg/mL
same,solubility,"[3]; fasted state simulated intestinal fluid (FaSSIF), pH 6.5, fassif, FaSSIF (pH 6.5)",9 µg/mL

# Source: patent US11976074B1, “Crystalline salts of Linsitinib” (Sling Therapeutics, Inc., priority 2023, dated 2024)
